Organism: Rattus norvegicus
Test: DrugMatrix - Regimen: Daily Repeat
Type: toxicity, organism-based, Sprague-Dawley
Set-up: regimen Daily Repeat, gender Male, age 6-8 weeks
Conditions: in vivo, po, route oral GAVAGE, […]; for URIC ACID / ALANINE AMINOTRANSFERASE / ALBUMIN / ALKALINE PHOSPHATASE / ASPARTATE AMINOTRANSFERASE / BLOOD UREA NITROGEN / CARBON DIOXIDE / CHLORIDE / CHOLESTEROL / CREATINE PHOSPHOKINASE / CREATININE / GLUCOSE / LACTATE DEHYDROGENASE / LIPASE / PHOSPHORUS / POTASSIUM / SODIUM / TOTAL BILIRUBIN / TOTAL PROTEIN: tissue Plasma
[1] = 1 mg/kg, 120 h, tissue Blood, dose level Low, time 5 day
[2] = 1 mg/kg, 120 h, dose level Low, time 5 day
[3] = 2.75 mg/kg, 72 h, tissue Blood, dose level High, time 3 day
[4] = 2.75 mg/kg, 72 h, dose level High, time 3 day
[5] = 2.75 mg/kg, 120 h, tissue Blood, dose level High, time 5 day
[6] = 2.75 mg/kg, 120 h, dose level High, time 5 day

## C[C@H]1O[C@@H](O[C@H]2[C@@H](O)C[C@H](O[C@H]3[C@@H](O)C[C@H](O[C@H]4CC[C@@]5(C)[C@H](CC[C@@H]6[C@@H]5CC[C@]5(C)[C@@H](C7=CC(=O)OC7)CC[C@]65O)C4)O[C@@H]3C)O[C@@H]2C)C[C@H](O)[C@@H]1O [DIGITOXIN]
1 mg/kg, 72 h, dose level Low, time 3 day
  URIC ACID: 0.53 mg/dL
[1]
  ABSOLUTE BASOPHIL: 0 CELLS/uL
  ABSOLUTE EOSINOPHIL: 0 CELLS/uL
  ABSOLUTE LYMPHOCYTE: 9184 CELLS/uL
  ABSOLUTE MONOCYTE: 19 CELLS/uL
  ABSOLUTE SEGMENTED NEUTROPHIL: 697 CELLS/uL
  BASOPHIL: 0%
  EOSINOPHIL: 0%
  ERYTHROCYTE COUNT: 5.65 x10E6/uL
  HEMATOCRIT: 35.27%
  HEMOGLOBIN: 13.63 G/DL
  LEUKOCYTE COUNT: 9.9 x10E3/uL
  LYMPHOCYTE: 93%
  MEAN CORPUSCULAR HEMOGLOBIN: 24.2 pg
  MEAN CORPUSCULAR HEMOGLOBIN CONCENTRATION: 38.7 G/DL
  MEAN CORPUSCULAR VOLUME: 62.47 fL
  MONOCYTE: 0.33%
  NEUTROPHIL: 6.67%
  NUCLEATED RED BLOOD CELLS: 0 /100WBC
  PLATELET COUNT: 833 x10E3/uL
[2]
  ALANINE AMINOTRANSFERASE: 84.33 u/L
  ALBUMIN: 4.1 G/DL
  ALKALINE PHOSPHATASE: 531.67 u/L
  ASPARTATE AMINOTRANSFERASE: 83 u/L
  BLOOD UREA NITROGEN: 10.67 mg/dL
  CARBON DIOXIDE: 34.67 mmol/L
  CHLORIDE: 98.33 MEQ/L
  CHOLESTEROL: 76.67 mg/dL
  CREATINE PHOSPHOKINASE: 231.33 u/L
  CREATININE: 0.16 mg/dL
  GLUCOSE: 154 mg/dL
  LACTATE DEHYDROGENASE: 122.67 u/L
  LIPASE: 10 u/L
  PHOSPHORUS: 10.13 mg/dL
  POTASSIUM: 5.23 MEQ/L
  SODIUM: 142.43 MEQ/L
  TOTAL BILIRUBIN: 0.23 mg/dL
  TOTAL PROTEIN: 5.83 G/DL
  URIC ACID: 0.43 mg/dL
[3]
  ABSOLUTE BASOPHIL: 0 CELLS/uL
  ABSOLUTE EOSINOPHIL: 0 CELLS/uL
  ABSOLUTE LYMPHOCYTE: 10747 CELLS/uL
  ABSOLUTE MONOCYTE: 27.33 CELLS/uL
  ABSOLUTE SEGMENTED NEUTROPHIL: 592.33 CELLS/uL
  BASOPHIL: 0%
  EOSINOPHIL: 0%
  ERYTHROCYTE COUNT: 5.51 x10E6/uL
  HEMATOCRIT: 33.6%
  HEMOGLOBIN: 13.4 G/DL
  LEUKOCYTE COUNT: 11.37 x10E3/uL
  LYMPHOCYTE: 94.33%
  MEAN CORPUSCULAR HEMOGLOBIN: 24.33 pg
  MEAN CORPUSCULAR VOLUME: 61.03 fL
  MONOCYTE: 0.33%
  NEUTROPHIL: 5.33%
  NUCLEATED RED BLOOD CELLS: 0 /100WBC
  PLATELET COUNT: 448 x10E3/uL
[4]
  ALANINE AMINOTRANSFERASE: 73 u/L
  ALBUMIN: 3.8 G/DL
  ALKALINE PHOSPHATASE: 350.67 u/L
  ASPARTATE AMINOTRANSFERASE: 101.33 u/L
  BLOOD UREA NITROGEN: 11.67 mg/dL
  CARBON DIOXIDE: 23.33 mmol/L
  CHLORIDE: 96 MEQ/L
  CHOLESTEROL: 61.33 mg/dL
  CREATINE PHOSPHOKINASE: 274.33 u/L
  CREATININE: 0.13 mg/dL
  GLUCOSE: 147.33 mg/dL
  LACTATE DEHYDROGENASE: 153 u/L
  LIPASE: 10.67 u/L
  PHOSPHORUS: 9.03 mg/dL
  POTASSIUM: 5.47 MEQ/L
  SODIUM: 137.1 MEQ/L
  TOTAL BILIRUBIN: 0.2 mg/dL
  TOTAL PROTEIN: 5.33 G/DL
  URIC ACID: 0.67 mg/dL
[5]
  ABSOLUTE BASOPHIL: 0 CELLS/uL
  ABSOLUTE EOSINOPHIL: 0 CELLS/uL
  ABSOLUTE LYMPHOCYTE: 7671 CELLS/uL
  ABSOLUTE MONOCYTE: 21 CELLS/uL
  ABSOLUTE SEGMENTED NEUTROPHIL: 641.33 CELLS/uL
  BASOPHIL: 0%
  EOSINOPHIL: 0%
  ERYTHROCYTE COUNT: 5.28 x10E6/uL
  HEMATOCRIT: 33.33%
  HEMOGLOBIN: 12.97 G/DL
  LEUKOCYTE COUNT: 8.33 x10E3/uL
  LYMPHOCYTE: 92%
  MEAN CORPUSCULAR HEMOGLOBIN: 24.53 pg
  MEAN CORPUSCULAR VOLUME: 63 fL
  MONOCYTE: 0.33%
  NEUTROPHIL: 7.67%
  NUCLEATED RED BLOOD CELLS: 0.33 /100WBC
  PLATELET COUNT: 1052.33 x10E3/uL
[6]
  ALANINE AMINOTRANSFERASE: 67.67 u/L
  ALBUMIN: 4.03 G/DL
  ALKALINE PHOSPHATASE: 389.33 u/L
  ASPARTATE AMINOTRANSFERASE: 88.67 u/L
  BLOOD UREA NITROGEN: 14.67 mg/dL
  CARBON DIOXIDE: 35 mmol/L
  CHLORIDE: 99.67 MEQ/L
  CHOLESTEROL: 57.33 mg/dL
  CREATINE PHOSPHOKINASE: 199.67 u/L
  CREATININE: 0.15 mg/dL
  GLUCOSE: 156.67 mg/dL
  LACTATE DEHYDROGENASE: 157.67 u/L
  LIPASE: 9.67 u/L
  PHOSPHORUS: 10.33 mg/dL
  POTASSIUM: 5.37 MEQ/L
  SODIUM: 144.23 MEQ/L
  TOTAL BILIRUBIN: 0.17 mg/dL
  TOTAL PROTEIN: 5.67 G/DL
  URIC ACID: 0.5 mg/dL

Source: ChEMBL document CHEMBL3885881, “DrugMatrix”
